The target in this assay is T1, human cannabinoid CB2 receptor (Homo sapiens, UniProt P34972).
T1 construct: expressed in transfected cells; host or cells: Saccharomyces cerevisiae strain MMY23
Kind of assay: Cannabinoid CB2 receptor agonist activity, yeast reporter assay (FDGlu fluorescence).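 On Emax: 100% equals maximal response of reference agonist HU210.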 The format is cell-based. The note with it: for Emax: read-out: efficacy value (Emax) at the cloned human cannabinoid CB2 receptor. Here is the method:
The cannabinoid CB2 receptor agonist activity of the compounds of formula (I) was determined in accordance with the following experimental method.
Yeast (Saccharomyces cerevisiae) cells expressing the human cannabinoid CB2 receptor were generated by integration of an expression cassette into the ura3 chromosomal locus of yeast strain MMY23. This cassette consisted of DNA sequence encoding the human CB2 receptor flanked by the yeast GPD promoter to the 5′ end of CB2 and a yeast transcriptional terminator sequence to the 3′ end of CB2. MMY23 expresses a yeast/mammalian chimeric G-protein alpha subunit in which the C-terminal 5 amino acids of Gpa1 are replaced with the C-terminal 5 amino acids of human Gαi3 (as described in Brown et al. (2000), Yeast 16:11-22). Cells were grown at 30° C. in liquid Synthetic Complete (SC) yeast media (Guthrie and Fink (1991), Methods in Enzymology, Vol. 194) lacking uracil, tryptophan, adenine and leucine to late logarithmic phase (approximately 6 OD600/ml).
Agonists were prepared as 10 mM stocks in DMSO. […] Agonist solutions in DMSO (1% final assay volume) were transferred into black, clear bottom, microtitre plates from NUNC (96- or 384-well). […] This mixture (50 ul per well for 384-well plates, 200 ul per well for 96-well plates) was added to agonist in the assay plates (Multidrop 384, Labsystems). After incubation at 30° C. for 24 hours, fluorescence resulting from degradation of FDGlu to fluorescein due to exoglucanase, an endogenous yeast enzyme produced during agonist-stimulated cell growth, was determined using a Spectrofluor microtitre plate reader (Tecan; excitation wavelength: 485 nm; emission wavelength: 535 nm). Fluorescence was plotted against compound concentration and iteratively curve fitted using a four parameter fit to generate a concentration effect value.
where Max[compound X] and Min[compound X] are the fitted maximum and minimum respectively from the concentration effect curve for compound X, and Max[HU210] and Min[HU210] are the fitted maximum and minimum respectively from the concentration effect curve for (6aR,10aR)-3-(1,1′-Dimethylheptyl)-6a,7,10,10a-tetrahydro-1-hydroxy-6,6-dimethyl-6H-dibenzo[b,d]pyran-9-methanol (HU210; available from Tocris). Equieffective molar ratio (EMR) values were calculated from the equation EMR=EC50 [compound X]/EC50 [HU210]
Where EC50 [compound X] is the EC50 of compound X and EC50 [HU210] is the EC50 of HU210.
(A reporter such as luciferase makes a cellular process visible.)

T1 sequence (P34972 whole entry): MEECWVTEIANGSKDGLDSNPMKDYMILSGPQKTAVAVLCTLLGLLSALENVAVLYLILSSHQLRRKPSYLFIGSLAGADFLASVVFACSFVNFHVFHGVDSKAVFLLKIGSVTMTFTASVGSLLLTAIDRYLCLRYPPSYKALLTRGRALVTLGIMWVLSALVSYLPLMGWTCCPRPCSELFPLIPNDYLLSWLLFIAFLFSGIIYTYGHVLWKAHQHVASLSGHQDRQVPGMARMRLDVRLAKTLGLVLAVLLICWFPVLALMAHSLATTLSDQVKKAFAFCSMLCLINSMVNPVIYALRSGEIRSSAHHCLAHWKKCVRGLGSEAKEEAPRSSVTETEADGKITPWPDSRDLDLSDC

Usually EC50 stands for the concentration that produces a half-maximal response. Read a high EC50 as weaker potency. The Emax is the maximal effect, on the per cent scale that the assay sets. Turning to `CC(C)c1cc(Nc2ccc(Br)cc2Cl)ncc1C(=O)NCC1CCOCC1` [Example 82], the EC50 is under 300 nM and the Emax was over 50%.

Consider `CC(C)c1cc(Nc2ccc(Cl)cc2Br)ncc1C(=O)NCC1CCOCC1` [Example 83, 6-(2-Bromo-4-chloro-phenylamino)-4-isopropyl-N-(tetrahydro-pyran-4-ylmethyl) nicotinamide], for which the EC50 is under 300 nM and the Emax is over 50%.

On to `Cc1c(Nc2cc(C(C)C)c(C(=O)NCC3CCOCC3)cn2)cccc1C(F)(F)F` [Example 84, 4-lsopropyl-6-(2-methyl-3-trifluoromethyl-phenylamino)-N-(tetrahydro-pyran-4-ylmethyl)-nicotinamide], for which the EC50 was under 300 nM and the Emax was over 50%.

For the compound `Cc1ccc(Nc2cc(C(C)C)c(C(=O)NCC3CCOCC3)cn2)cc1Cl` [Example 85], the EC50 is under 300 nM and the Emax is over 50%.

`Cc1cc(Nc2cc(C(C)C)c(C(=O)NCC3CCOCC3)cn2)ccc1Br` [Example 86, 6-(4-Bromo-3-methyl-phenylamino)-4-isopropyl-N-(tetrahydro-pyran-4-ylmethyl)-nicotinamide]: the concentration for a half-maximal effect (EC50) was under 300 nM and the Emax is over 50%.

For the compound `CC(C)c1cc(Nc2cc(Cl)ccc2Cl)ncc1C(=O)NCC1CCOCC1` [Example 87, 6-(2,5-Dichloro-phenylamino)-4-isopropyl-N-(tetrahydro-pyran-4-ylmethyl)-nicotinamide], the 50% effective concentration (EC50) was under 300 nM and the Emax is over 50%.

Consider `Cc1ccc(C(F)(F)F)cc1Nc1cc(C(C)C)c(C(=O)NCC2CCOCC2)cn1` [Example 88, 4-lsopropyl-6-(2-methyl-5-trifluoromethyl-phenylamino)-N-(tetrahydro-pyran-4-ylmethyl)-nicotinamide], for which the EC50 is under 300 nM and the Emax is over 50%.

Turning to `CC(C)c1cc(Nc2ccc(Cl)cc2Br)ncc1C(=O)NCC1CCCC1` [Example 89, 6-(2-Bromo-4-chloro-phenylamino)-N-cyclopentylmethyl-4-isopropyl-nicotinamide], the EC50 was under 300 nM and the Emax was over 50%.

In the case of `CC(C)c1cc(Nc2ccc(Br)c(Cl)c2)ncc1C(=O)NCC1CCOCC1` [Example 90, 6-(4-Bromo-3-chloro-phenylamino)-4-isopropyl-N-(tetrahydro-pyran-4-ylmethyl)-nicotinamide], the EC50 is under 300 nM and the Emax is over 50%.

For the compound `CC(C)c1cc(Nc2ccc(Cl)cc2F)ncc1C(=O)NCC1CCCC1` [Example 91, 6-(4-Chloro-2-fluoro-phenylamino)-N-cyclopentylmethyl-4-isopropyl-nicotinamide], the half-maximal effective concentration (EC50) is under 300 nM and the Emax was over 50%.

In the case of `CC(C)c1cc(Nc2ccc(C(F)(F)F)c(F)c2)ncc1C(=O)NCC1CCCC1` [Example 92, N-Cyclopentylmethyl-6-(3-fluoro-4-trifluoromethyl-phenylamino)-4-isopropyl-nicotinamide], the EC50 was under 300 nM and the Emax was over 50%.

`Cc1cc(C#N)ccc1Nc1cc(C(C)C)c(C(=O)NCC2CCCC2)cn1` [Example 93, 6-(4-Cyano-2-methyl-phenylamino)-N-cyclopentylmethyl-4-isopropyl-nicotinamide]: the EC50 was under 300 nM and the Emax is over 50%.

On to `CC(C)c1cc(Nc2ccc(C#N)c(C(F)(F)F)c2)ncc1C(=O)NCC1CCOCC1` [Example 96, 6-(4-Cyano-3-trifluoromethyl-phenylamino)-4-isopropyl-N-(tetrahydro-pyran-4-ylmethyl)-nicotinamide], for which the Emax was over 50%.

`CC(C)c1cc(Nc2ccc(C#N)cc2F)ncc1C(=O)NCC1CCOCC1` [Example 97, 6-(4-Cyano-2-fluoro-phenylamino)-4-isopropyl-N-(tetrahydro-pyran-4-ylmethyl)-nicotinamide]: the Emax was over 50%.

Turning to `O=C(NC1CCC1)c1cnc(Nc2cccc(Cl)c2Cl)cc1C(F)(F)F` [Example 104, 6-(2,3-Dichloro-phenylamino)-N-(cyclobutyl)-4-trifluoromethyl-nicotinamide], the EC50 was under 300 nM and the Emax is over 50%.

For `O=C(NCC1CCOCC1)c1cnc(Nc2ccc(Cl)cc2Cl)cc1C(F)(F)F` [Example 105, 6-(2,4-Dichloro-phenylamino)-N-(tetrahydropyran-4-ylmethyl)-4-trifluoromethyl-nicotinamide], the Emax was over 50%.

In the case of `O=C(NCC1CCS(=O)(=O)C1)c1cnc(Nc2cccc(Cl)c2)cc1C(F)(F)F` (stereo not shown) [Example 106, 6-(3-Chloro-phenylamino)-N-(1,1-dioxo-tetrahydrothiophen-3-ylmethyl)-4-trifluoromethyl-nicotinamide], the EC50 is under 300 nM and the Emax was over 50%.

With `O=C(NCC1CCCCC1)c1cnc(Nc2ccccc2)cc1C(F)(F)F` [Example 107, N-Cyclohexylmethyl-6-phenylamino-4-trifluoro-methyl-nicotinamide], the EC50 was under 300 nM and the Emax is over 50%.

As to `O=C(NCC1CCCC1)c1cnc(Nc2ccccc2)cc1C(F)(F)F` [Example 108, N-Cyclopentylmethyl-6-phenylamino-4-trifluoro-methyl-nicotinamide], the EC50 is under 300 nM and the Emax is over 50%.

Take `O=C(NCC1CCC1)c1cnc(Nc2ccccc2)cc1C(F)(F)F` [Example 109, N-Cyclobutylmethyl-6-phenylamino-4-trifluoro-methyl-nicotinamide]: the EC50 was under 300 nM and the Emax was over 50%.

Regarding `O=C(NC1CCC1)c1cnc(Nc2cccc(Cl)c2)cc1C(F)(F)F` [Example 110, N-Cyclobutyl-6-(3-chloro-phenylamino)-4-trifluoro-methyl-nicotinamide], the 50% effective concentration (EC50) was under 300 nM and the Emax was over 50%.

As to `O=C(NCC1CCOCC1)c1cnc(Nc2cccc(Cl)c2)cc1C(F)(F)F` [Example 111, N-(Tetrahydropyran-4-yl-methyl)-6-(3-chlorophenyl-amino)-4-trifluoromethyl-nicotinamide], the Emax is over 50%.

On to `O=C(NCC1CCC1)c1cnc(Nc2cccc(Cl)c2)cc1C(F)(F)F` [Example 112, N-Cyclobutylmethyl-6-(3-chlorophenylamino)-4-tri-fluoromethyl-nicotinamide], for which the EC50 was under 300 nM and the Emax is over 50%.

As to `CC(C)CNC(=O)c1cnc(Nc2cccc(Cl)c2)cc1C(F)(F)F` [Example 113, N-Isobutyl-6-(3-chloro-phenylamino)-4-trifluoro-methyl-nicotinainide], the EC50 is under 300 nM and the Emax was over 50%.

Regarding `O=C(NCC1CCCC1)c1cnc(Nc2cccc(Cl)c2)cc1C(F)(F)F` [Example 114, N-Cyclopentylmethyl-6-(3-chlorophenylamino)-4-tri-fluoromethyl-nicotinamide], the EC50 is under 300 nM and the Emax was over 50%.

For `O=C(NCC1CC1)c1cnc(Nc2cccc(Cl)c2)cc1C(F)(F)F` [Example 115, N-Cyclopropylmethyl-6-(3-chlorophenylamino)-4-tri-fluoromethyl-nicotinamide], the EC50 was under 300 nM and the Emax is over 50%.

On to `O=C(NCC1CCCCC1)c1cnc(Nc2cccc(Br)c2)cc1C(F)(F)F` [Example 116, N-Cyclohexylmethyl-6-(3-bromophenylamino)-4-tri-fluoromethyl-nicotinamide], for which the EC50 was under 300 nM and the Emax was over 50%.

In the case of `O=C(NCC1CCCCCC1)c1cnc(Nc2cccc(Br)c2)cc1C(F)(F)F` [Example 117, N-Cycloheptylmethyl-6-(3-bromophenylamino)-4-tri-fluoromethyl-nicotinamide], the EC50 is under 300 nM and the Emax was over 50%.

In the case of `O=C(NCC1CCOCC1)c1cnc(Nc2cccc(Br)c2)cc1C(F)(F)F` [Example 118, N-(Tetrahydropyran-4-yl-methyl)-6-(3-bromophenyl-amino)-4-trifluoromethyl-nicotinamide], the EC50 is under 300 nM and the Emax is over 50%.

`O=C(NC1CCC1)c1cnc(Nc2cccc(Br)c2)cc1C(F)(F)F` [Example 119, N-Cyclobutyl-6-(3-bromo-phenylamino)-4-trifluoro-methyl-nicotinamide]: the concentration giving a half-maximal response (EC50) is under 300 nM and the Emax is over 50%.

Take `O=C(NCC1CCC1)c1cnc(Nc2cccc(Br)c2)cc1C(F)(F)F` [Example 120, N-Cyclobutylmethyl-6-(3-bromo-phenylamino)-4-tri-fluoromethyl-nicotinamide]: the 50% effective concentration (EC50) is under 300 nM and the maximum response (Emax) was over 50%.
